Laboratory results from patent publication US20250382331A1, “Carrier Peptide Fragment and Use Thereof” (TOAGOSEI CO., LTD., priority 2022, published 2025).
Primed or numbered codes have the meaning given here. FAM = 5(6)-carboxyfluorescein; FAM″ = C-terminal FAM dye

Test system: NSC-34 cells
Assay: Evaluation on cell membrane permeability by flow cytometry
Assay type: cell-based, mouse
Details: 10 μM construct (additive), 0.5% DMSO, 20 hours incubation, flow cytometer FL2
Experimental: As the eukaryotic cells, NSC-34 cells (mouse motor neuron-like hybrid cell line) were used and the cell membrane permeability of the constructs 1 to 4 was analyzed. In Examples 1 to 4, the prepared samples 1 to 4 were used, respectively, and in Example 5, a FAM solution was used.
The NSC-34 cells were cultured in 10% fetal bovine serum (FBS)-containing Dulbecco's modified Eagle's medium (DMEM (Cat No. 044-29765, manufactured by FUJIFILM Wako Pure Chemical Corporation)), which is a normal culture medium.
The NSC-34 cells that adhered to a culture plate were cleaned with PBS and then, a 0.25%-trypsin/EDTA solution was added thereto, and incubation was performed for three minutes at 37° C. After the incubation, the aforementioned 10% FBS-containing DMEM was added to deactivate trypsin and then, five-minute centrifugal separation was performed at 150×g to precipitate the cells. After the supernatant generated by the centrifugal separation was removed, the 10% FBS-containing DMEM was added to the precipitate (cell pellet) to prepare a cell suspension of about 2×10^5 cells/mL. The cell suspension was added by 1 mL to a well of a commercially available six-hole (well) plate (manufactured by AGC TECHNO GLASS Co., Ltd.) so as to seed the cell (about 2×10^5 cells/well). In addition, the 2 mM sample solution 1 was diluted with the 10% FBS-containing DMEM to prepare the sample solution 1 in which the concentration of the sample 1 was 20 μM. Then, 1 mL of the 20 μM sample solution 1 was added to the well (that is, so that the concentration of the sample 1 became 10 μM and the DMSO concentration became 0.5% in the culture solution in the well). After that, the cell was incubated for 20 hours at 37° C. under a 5% CO2 condition.
After the 20-hour incubation, the culture supernatant was removed from the well and the cells in the well were cleaned twice with 1 mL of PBS. Next, 200 μL of the 0.25% trypsin/EDTA solution was added to the well and the incubation was performed for three minutes at 37° C. After the incubation, 400 μL of the 10% FBS-containing DMEM was added to the well to deactivate the trypsin. Subsequently, the cell suspension in the well was transferred to a tube and the cells were collected. After that, 600 μL of PBS was added further to the well to clean the well. Then, PBS in the well was transferred to the tube, so that the cells remaining in the well were collected in the tube. This tube was subjected to five-minute centrifugal separation at 4° C. under a condition of 210×g. After the centrifugal separation, the supernatant was removed and the precipitate (cell pellet) was suspended (cleaned) with 1 mL of PBS, which was followed by the centrifugal separation under the same condition as that described above. After this operation was repeated twice, the supernatant was removed and thus, the cells (cell pellet) cultured in a culture medium containing the sample 1 were obtained.
Regarding the obtained cells (cell pellet), the cell membrane permeability of the sample 1 was analyzed using a flow cytometer. […]
Using the aforementioned flow cytometer, gating based on forward scatter (FSC) and side scatter (SSC) was performed to set a gate about a cell group to be analyzed, and the fluorescence intensity was measured about the cell group in this gate. […] The fluorescence intensity was measured using a fluorescence detector FL2 of the flow cytometer (optimum detection wavelength around 543 nm) capable of detecting the fluorescence wavelength of FAM. […]

Substance	MFI (median fluorescence intensity)
5(6)-carboxyfluorescein [Example 5, reference compound]	8.15
Ac-KKRTLRKNSNRKKR-FAM (Ac-KKRTLRKNSNRKKR-{FAM}) [Example 4]	16.7
Ac-KKRTLRKSNNRKKR-FAM (Ac-KKRTLRKSNNRKKR-{FAM}) [Example 3]	13.6
Ac-KKRTLRKSNSRKKR-FAM (Ac-KKRTLRKSNSRKKR-{FAM″}) [Example 1]	11.2
Ac-KKRTLRKSSNRKKR-FAM (Ac-KKRTLRKSSNRKKR-{FAM″}) [Example 2]	12.9
